Among the data in patent US10562891B2, “Quinazolinones as PARP14 inhibitors” (Ribon Therapeutics Inc., priority 2017, dated 2020) are IC50 values, retold here.

As a reminder, the IC50 is the concentration needed to halve the response being measured.

For the assay, the target named is catalytic domain of human PARP14 (Homo sapiens (Human), UniProt Q460N5). In words: Enzymatic assay for inhibition of PARP14 (DELFIA, auto-modification with biotin-NAD). Format: biochemical. Particulars: auto-modification of PARP14 by biotin-NAD, 50 nM PARP14, 3 μM biotin-NAD. In outline: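 His-TEV-tagged PARP14 catalytic domain (50 nM) preincubated with compound 30 min at 25 °C, then auto-modified with 3 μM biotin-NAD for 3 h at 25 °C in HEPES pH 8 buffer with DTT. IC50 from 4-parameter fit, rucaparib and DMSO as controls.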
catalytic domain of human PARP14, sequence (Q460N5 1611-1801): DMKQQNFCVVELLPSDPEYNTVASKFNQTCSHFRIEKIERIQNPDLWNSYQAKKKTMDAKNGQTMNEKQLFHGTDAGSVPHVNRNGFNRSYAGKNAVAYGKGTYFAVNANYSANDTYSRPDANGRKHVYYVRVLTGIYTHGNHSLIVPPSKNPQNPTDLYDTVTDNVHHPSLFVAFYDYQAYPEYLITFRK
`O=c1[nH]c(CSC2CCOCC2)nc2cc(OCC3CC(F)(F)C3)cc(F)c12` [Example 317, 7-((3,3-Difluorocyclobutyl)methoxy)-5-fluoro-2-(((tetrahydro-2H-pyran-4-yl)thio)methyl)quinazolin-4(3H)-one] registered a 50% inhibitory concentration (IC50) below 1 µM.

The compound `O=c1[nH]c(CS[C@H]2CC[C@H](O)CC2)nc2cc(OCC3CCCOC3)cc(F)c12` (stereo partly drawn) [Example 318, 5-Fluoro-2-(((trans-4-hydroxycyclohexyl)thio)methyl)-7-((tetrahydro-2H-pyran-3-yl)methoxy)quinazolin-4(3H)-one] registered an IC50 below 1 µM. The value for `O=c1[nH]c(CSC2CCOCC2)nc2cc(OCC3CCCOC3)cc(F)c12` (centres unmarked) [Example 319, 5-Fluoro-7-((tetrahydro-2H-pyran-3-yl)methoxy)-2-(((tetrahydro-2H-pyran-4-yl)thio)methyl)quinazolin-4(3H)-one] was below 1 µM; that for `O=c1[nH]c(CSC2CCOCC2)nc2cc(OCC3CCCO3)cc(F)c12` (centres unmarked) [Example 320, 5-Fluoro-2-(((tetrahydro-2H-pyran-4-yl)thio)methyl)-7-((tetrahydrofuran-2-yl)methoxy)quinazolin-4(3H)-one] was below 1 µM; that for `O=c1[nH]c(CSC2CCOCC2)nc2cc(OC[C@H]3CCCO3)cc(F)c12` [Example 321a, (R)-5-Fluoro-2-(((tetrahydro-2H-pyran-4-yl)thio)methyl)-7-((tetrahydrofuran-2-yl)methoxy)quinazolin-4(3H)-one] was below 1 µM. The same measure for `O=c1[nH]c(CSC2CCOCC2)nc2cc(OC[C@@H]3CCCO3)cc(F)c12` [Example 321b, (S)-5-Fluoro-2-(((tetrahydro-2H-pyran-4-yl)thio)methyl)-7-((tetrahydrofuran-2-yl)methoxy)quinazolin-4(3H)-one]: below 1 µM; for `O=c1[nH]c(CSC2CCOCC2)nc2cc(NCC3CCOC3)c(F)c(F)c12` (centres unmarked) [Example 322, 5,6-Difluoro-2-(((tetrahydro-2H-pyran-4-yl)thio)methyl)-7-(((tetrahydrofuran-3-yl)methyl)amino)quinazolin-4(3H)-one]: below 1 µM. The compound `O=c1[nH]c(CSC2CCOCC2)nc2cc(NC[C@@H]3CCOC3)c(F)c(F)c12` [Example 323a, (S)-5,6-Difluoro-2-(((tetrahydro-2H-pyran-4-yl)thio)methyl)-7-(((tetrahydrofuran-3-yl)methyl)amino)quinazolin-4(3H)-one] gave an IC50 below 1 µM. Turning to `O=c1[nH]c(CSC2CCOCC2)nc2cc(NC[C@H]3CCOC3)c(F)c(F)c12` [Example 323b, (R)-5,6-Difluoro-2-(((tetrahydro-2H-pyran-4-yl)thio)methyl)-7-(((tetrahydrofuran-3-yl)methyl)amino)quinazolin-4(3H)-one], the IC50 was below 1 µM. `O=c1[nH]c(CS[C@H]2CC[C@H](O)CC2)nc2cc(OCC3CCOC3)cc(F)c12` (stereo partly drawn) [Example 324, 5-Fluoro-2-((((trans)-4-hydroxycyclohexyl)thio)methyl)-7-((tetrahydrofuran-3-yl)methoxy)quinazolin-4(3H)-one] gave a half-inhibitory concentration (IC50) below 1 µM.

`O=c1[nH]c(CS[C@H]2CC[C@H](O)CC2)nc2cc(OC[C@@H]3CCOC3)cc(F)c12` [Example 325a, 5-Fluoro-2-((((trans)-4-hydroxycyclohexyl)thio)methyl)-7-(((R)-tetrahydrofuran-3-yl)methoxy)quinazolin-4(3H)-one]: the IC50 was below 1 µM. The value for `O=c1[nH]c(CS[C@H]2CC[C@H](O)CC2)nc2cc(OC[C@H]3CCOC3)cc(F)c12` [Example 325b, 5-Fluoro-2-((((trans)-4-hydroxycyclohexyl)thio)methyl)-7-(((S)-tetrahydrofuran-3-yl)methoxy)quinazolin-4(3H)-one] was below 1 µM; that for `CN1CC[C@@H](COc2cc(F)c3c(=O)[nH]c(CSC4CCOCC4)nc3c2)[C@H](F)C1` [Example 327a, 5-Fluoro-7-(((3S,4S)-3-fluoro-1-methylpiperidin-4-yl)methoxy)-2-(((tetrahydro-2H-pyran-4-yl)thio)methyl)quinazolin-4(3H)-one] was below 1 µM. Turning to `CO[C@H]1C[C@@H](Nc2cc3nc(CSC4CCOCC4)[nH]c(=O)c3c(F)c2F)C1` [Example 328, 5,6-Difluoro-7-(((cis)-3-methoxycyclobutyl)amino)-2-(((tetrahydro-2H-pyran-4-yl)thio)methyl)quinazolin-4(3H)-one], the IC50 was below 1 µM. For `CC(=O)N[C@H]1CC[C@@H](SCc2nc3cc(OCC4CC4)cc(F)c3c(=O)[nH]2)CC1` [Example 329, N-((cis)-4-(((7-(Cyclopropylmethoxy)-5-fluoro-4-oxo-3,4-dihydroquinazolin-2-yl)methyl)thio)cyclohexyl)acetamide], the 50% inhibitory concentration (IC50) was below 1 µM. `CC(=O)N[C@H]1CC[C@H](SCc2nc3cc(OCC4CC4)cc(F)c3c(=O)[nH]2)CC1` [Example 330, N-((trans)-4-(((7-(Cyclopropylmethoxy)-5-fluoro-4-oxo-3,4-dihydroquinazolin-2-yl)methyl)thio)cyclohexyl)acetamide]: the IC50 is below 1 µM. Take `CCO[C@H]1C[C@@H](Nc2cc3nc(CSC4CCOCC4)[nH]c(=O)c3c(F)c2F)C1` [Example 331, 7-(((cis)-3-Ethoxycyclobutyl)amino)-5,6-difluoro-2-(((tetrahydro-2H-pyran-4-yl)thio)methyl)quinazolin-4(3H)-one]: the IC50 was below 1 µM. Compound `C[C@]1(O)CC[C@H](SCc2nc3cc(OCC4CCOCC4)cc(F)c3c(=O)[nH]2)CC1` [Example 332, 5-Fluoro-2-((((cis)-4-hydroxy-4-methylcyclohexyl)thio)methyl)-7-((tetrahydro-2H-pyran-4-yl)methoxy)quinazolin-4(3H)-one] had an IC50 below 1 µM. The same measure for `CN1CC[C@@H](COc2cc(F)c3c(=O)[nH]c(CS[C@H]4CC[C@H](O)CC4)nc3c2)[C@H](F)C1` [Example 335a, 5-fluoro-7-(((3S,4S)-3-fluoro-1-methylpiperidin-4-yl)methoxy)-2-((((trans)-4-hydroxycyclohexyl)thio)methyl)quinazolin-4(3H)-one]: below 1 µM. `NC[C@]1(F)CC[C@@H](SCc2nc3cc(OCC4CCC4)cc(F)c3c(=O)[nH]2)CC1` [Example 336] yielded a half-inhibitory concentration (IC50) of 1 to 10 µM. On to `O=c1[nH]c(CSC2CCOCC2)nc2cc(NCC3CC3)c(F)c(F)c12` [Example 337], for which the IC50 was below 1 µM. The same measure for `O=c1[nH]c(CSC2CCOCC2)nc2cc(NCC3CCOCC3)c(F)c(F)c12` [Example 338]: below 1 µM; for `O=c1[nH]c(CSC2CCS(=O)(=O)CC2)nc2cc(NCC3CCC3)c(F)c(F)c12` [Example 339]: below 1 µM.

With `O=c1[nH]c(CS[C@H]2CC[C@H](O)CC2)nc2cc(OCC3CCOCC3)cc(F)c12` [Example 342], the half-maximal inhibitory concentration (IC50) was below 1 µM. The compound `O=c1[nH]c(CSC2CCOCC2)nc2cc(OCC3COC3)cc(F)c12` [Example 343] gave an IC50 below 1 µM. The compound `O=c1[nH]c(CSC2CCOCC2)nc2cc(OCC3COCCO3)cc(F)c12` (centres unmarked) [Example 344] returned a half-inhibitory concentration (IC50) below 1 µM. For the compound `O=c1[nH]c(CSC2CCOCC2)nc2cc(NC3CCCCC3(F)F)cc(F)c12` (centres unmarked) [Example 345], the IC50 is below 1 µM. With `CN1CCN([C@H]2CC[C@H](Nc3cc4nc(CSC5CCOCC5)[nH]c(=O)c4c(F)c3F)CC2)CC1` [Example 346], the IC50 was below 1 µM. Turning to `CN1CCN([C@H]2CC[C@@H](Nc3cc4nc(CSC5CCOCC5)[nH]c(=O)c4c(F)c3F)CC2)CC1` [Example 347], the half-maximal inhibitory concentration (IC50) is below 1 µM.

Regarding `O=c1[nH]c(CSC2CCOCC2)nc2cc(N[C@@H]3CCCOC3)c(F)c(F)c12` [Example 348], the 50% inhibitory concentration (IC50) was below 1 µM. `CC(=O)N1CC[C@@H](Nc2cc3nc(CS[C@H]4CC[C@H](O)CC4)[nH]c(=O)c3c(F)c2F)C1` [Example 349] returned an IC50 below 1 µM. As to `O=c1[nH]c(CS[C@H]2CC[C@H](O)CC2)nc2cc(NC3CCCC3(F)F)cc(F)c12` (some centres unmarked) [Example 350], the IC50 is below 1 µM. The same measure for `O=c1[nH]c(CSC2CCOCC2)nc2cc(OCC3CCS(=O)(=O)CC3)cc(F)c12` [Example 351]: below 1 µM; for `O=c1[nH]c(CSC2CCOCC2)nc2cc(OCC3CCOCC3)cc(Cl)c12` [Example 353]: below 1 µM; for `O=c1[nH]c(CS[C@H]2CC[C@H](O)CC2)nc2cc(NC3CCN(CCC(F)(F)F)CC3)c(F)c(F)c12` [Example 354]: below 1 µM. The value for `CC1(C)CC(COc2cc(F)c3c(=O)[nH]c(CS[C@H]4CC[C@H](O)CC4)nc3c2)CO1` (some centres unmarked) [Example 355] was below 1 µM; that for `CO[C@H]1CC[C@H](SCc2nc3cc(OCC4CCOCC4)cc(F)c3c(=O)[nH]2)CC1` [Example 356] was below 1 µM; that for `CO[C@H]1CC[C@@H](SCc2nc3cc(OCC4CCOCC4)cc(F)c3c(=O)[nH]2)CC1` [Example 357] was below 1 µM. The value for `CC1(SCc2nc3cc(OCC4CCOCC4)cc(F)c3c(=O)[nH]2)CCOCC1` [Example 358] was below 1 µM. `N#C[C@H]1CC[C@H](Nc2cc3nc(CSC4CCOCC4)[nH]c(=O)c3c(F)c2F)CC1` [Example 360]: the IC50 is below 1 µM.

Regarding `N#C[C@H]1CC[C@@H](Nc2cc3nc(CSC4CCOCC4)[nH]c(=O)c3c(F)c2F)CC1` [Example 361], the IC50 is below 1 µM. The value for `CO[C@H]1C[C@H](Nc2cc3nc(CSC4CCOCC4)[nH]c(=O)c3c(F)c2F)C1` [Example 362] was below 1 µM; that for `CO[C@H]1C[C@@H](Nc2cc3nc(CS[C@H]4CC[C@H](O)CC4)[nH]c(=O)c3c(F)c2F)C1` [Example 363] was below 1 µM. The same measure for `Cc1cc(OCC2CCOCC2)cc2nc(CSC3CCOCC3)[nH]c(=O)c12` [Example 364]: below 1 µM; for `O=c1[nH]c(CS[C@H]2CC[C@@H](O)CC2)nc2cc(OCC3CCOCC3)cc(F)c12` [Example 365]: below 1 µM; for `O=c1[nH]c(CSC2CCC(F)(F)CC2)nc2cc(OCC3CCOCC3)cc(F)c12` [Example 366]: below 1 µM. The same measure for `CC(=O)N1CCC(COc2cc(F)c3c(=O)[nH]c(CSC4CCOCC4)nc3c2)C1` (centres unmarked) [Example 367]: below 1 µM.
